{"source": "patent US11634366B2", "about": "“Plant growth enhancer using carbon dioxide to increase plant yield and method of increasing plant yield” (Innovations for World Nutrition, LLC, priority 2020, dated 2023)", "key": {"[1]": {"system": "Oryza sativa long grain rice variety LaKast", "experiment": "Example 2 carbon dioxide in air bubbled into root zone of paddy rice: roots and foliage at 24 days", "format": "in vivo", "conditions": "for Dry Foliage Weight: total of ten plants; for Dry Root Weight: total of ten plants of one container; for % Difference in Total Nitrogen Uptake: vs air", "experimental": "(§1) Example 2 tests were conducted to test whether carbon dioxide alone delivered to the roots of rice plants improves the rough rice yield and the root growth. For this example Oryza sativa long grain rice variety LaKast™ seed treated with CruiserMaxx® (an insecticide and fungicide) was carefully selected as representative of all rice grown commercially and provides an excellent model for testing commercial rice.\n(§2) For the Example 2 tests, carbon dioxide diluted with air in selected amounts was bubbled into the root zone of paddy rice. The rice was planted in 18.9 L (5 gallon) containers which are 30.5 cm (12 inches) in diameter and 35.6 cm (14 inches) deep, and sets of 8 containers all received the same gas mixture. The tests were designed to end after 17 weeks, but some containers were removed earlier to visually check the roots for amount of growth.\n(§3) For the Example 2 tests, the following gas mixtures were used: Air • 0.2% carbon dioxide in air • 0.5% carbon dioxide in air • 1.0% carbon dioxide in air • 2.0% carbon dioxide in air • 5.0% carbon dioxide in air • Note: 0.2% is approximately 5 times the amount of carbon dioxide currently found naturally in air\n(§4) 18.9 L (5 gallon) containers were prepared by placing an aquatic gas diffuser attached to tubing at the bottom of each container and then filling the container 10.2 cm (4 inches) from the top with sieved top soil. The containers were placed on tables in a greenhouse in groups of eight so that all received approximately the same amount of light. Each group of eight containers was attached to a tank of gas with the gas being supplied through a regulator to a flow meter and then to a set of eight valves with each one controlling the gas mixture to a single container. A total of forty-eight containers were prepared, and twenty-four containers were placed on each table. Starter phosphorus was added to the soil by mixing 1.7 g of triple super phosphate into the top 7.6 cm (3 inches) of soil in each container. Soil was also given addition starter fertilizer by dissolving 150 g of urea (for nitrogen), 132 g of potassium chloride (for potassium), and 1236 g of Epsom salts (magnesium sulfate heptahydrate for magnesium) in 12 liters of water. Each container was then given 200 mL of this solution. Later, zinc was added using zinc sulfate. The containers were flooded to 1.3 cm (0.5 inches) above the surface of the soil using collected rainwater. On May 20, 2016, the rice seed was presoaked for 24 hours and then drained for 24 hours was dropped on the surface of the soil in each container. After the rice was established, the plants were thinned to 10 plants per container. At a later date, the plants were thinned again to six plants per container. The gas mixtures to the containers were started on May 20, 2016 and adjusted to an initial flow meter setting of 42.5 liters/hr. (1.5 ft^3/hr.) with a steady flow of bubbles in each container. The flow rate was turned down to 14.2 liters/hr. (0.5 ft^3/hr.) on Jun. 14, 2016. The gas flow was supplied each weekday from 8:00 am to noon. During the testing, fans in the greenhouse created a constant airflow to prevent carbon dioxide concentration around a particular group of plants.\nOn May 25, 2016, 10.6 g of zinc sulfate was dissolved in 10 L of water and each container was given 200 mL of this solution. As the plants grew, the flood waters were gradually raised until they reached a depth of three inches above the soil surface. A flood water depth of 5.1 to 7.6 cm (2 to 3 inches) was maintained for the remainder of the test. On Jun. 13, 2016, one front container (containing 10 plants each) for each level of carbon dioxide was withdrawn for measurement and the plants were gently removed and thoroughly cleaned. The plants and roots were then dried in an oven overnight at 80° C. The next day, the roots were trimmed and weighed. Table 6 presents the total root weights and total foliage weights of the ten plants for each container of plants. […]"}, "[2]": {"system": "Oryza sativa long grain rice variety LaKast", "experiment": "Example 2 carbon dioxide in air bubbled into root zone of paddy rice: root weights and rough rice yield at harvest", "format": "in vivo", "conditions": "for % Difference (root weight vs Air) / Dry Root Weight: at harvest; for Dry Root Weight: average of two containers; for Rough Rice Yield Weight: dry weight at harvest", "experimental": "as §1, §2, §3, §4\nOn Jun. 20, 2016, the rice plants of Example 2 were thinned to six plants per container. On Aug. 1, 2016, additional nitrogen and triple super phosphate (TSP) was added to each container at the rate of 0.57 g TSP in all containers, 0.87 g of urea per container being fed normal air, and 2.27 g ammonium bicarbonate (equivalent nitrogen content as 0.87 g of urea) for the rest of the containers. This introduction of nitrogen and phosphates was to ensure no limitation in nitrogen and phosphorus for the plants and therefore ensure the testing validity of introducing carbon dioxide as a gas to the roots of the plants.\nThe rough rice for the Example 2 tests was harvested on Sep. 19, 2016. The rough rice was separated, and dried for seven days at 40° C. […]"}}, "data": [{"smiles": "O=C=O", "note": "[CO2, carbon dioxide]", "values": [{"measurement": "% Difference of Root Weight as Compared to Air", "setting": "[1]; 0.5% CO2 in air", "value": 0, "unit": "%"}, {"measurement": "Total Nitrogen Uptake by Foliage", "setting": "[1]; 0.5% CO2 in air", "value": 0.156, "unit": "g"}, {"measurement": "Dry Foliage Weight", "setting": "[1]; 0.5% CO2 in air", "value": 3.48, "unit": "g"}, {"measurement": "Dry Root Weight", "setting": "[1]; 0.5% CO2 in air", "value": 1.26, "unit": "g"}, {"measurement": "% Difference in Total Nitrogen Uptake", "setting": "[1]; 0.5% CO2 in air", "value": 8.33, "unit": "%"}, {"measurement": "Total Nitrogen Uptake by Foliage", "setting": "[1]; 2.0% CO2 in air", "value": 0.151, "unit": "g"}, {"measurement": "Dry Foliage Weight", "setting": "[1]; 2.0% CO2 in air", "value": 3.43, "unit": "g"}, {"measurement": "Dry Root Weight", "setting": "[1]; 2.0% CO2 in air", "value": 2.08, "unit": "g"}, {"measurement": "% Difference in Total Nitrogen Uptake", "setting": "[1]; 2.0% CO2 in air", "value": 4.86, "unit": "%"}, {"measurement": "weight of the foliage compared with container receiving solely air", "setting": "[1]; each container receiving elevated carbon dioxide, in words", "value": "slightly more"}, {"measurement": "% Difference (rough rice yield vs Air)", "setting": "[2]; 0.2% CO2 in air", "value": 2.9, "unit": "%"}, {"measurement": "% Difference (root weight vs Air)", "setting": "[2]; 0.2% CO2 in air", "value": "+35.8%"}, {"measurement": "Dry Root Weight", "setting": "[2]; 0.2% CO2 in air", "value": 62.5, "unit": "g"}, {"measurement": "Rough Rice Yield Weight", "setting": "[2]; 0.2% CO2 in air", "value": 91.5, "unit": "g"}, {"measurement": "% Difference (rough rice yield vs Air)", "setting": "[2]; 0.5% CO2 in air", "value": 6.1, "unit": "%"}, {"measurement": "% Difference (root weight vs Air)", "setting": "[2]; 0.5% CO2 in air", "value": "+6.4%"}, {"measurement": "Dry Root Weight", "setting": "[2]; 0.5% CO2 in air", "value": 49.0, "unit": "g"}, {"measurement": "Rough Rice Yield Weight", "setting": "[2]; 0.5% CO2 in air", "value": 94.3, "unit": "g"}, {"measurement": "% Difference (rough rice yield vs Air)", "setting": "[2]; 1.0% CO2 in air", "value": 11.9, "unit": "%"}, {"measurement": "% Difference (root weight vs Air)", "setting": "[2]; 1.0% CO2 in air", "value": "+9.6%"}, {"measurement": "Dry Root Weight", "setting": "[2]; 1.0% CO2 in air", "value": 50.4, "unit": "g"}, {"measurement": "Rough Rice Yield Weight", "setting": "[2]; 1.0% CO2 in air", "value": 99.5, "unit": "g"}, {"measurement": "% Difference (rough rice yield vs Air)", "setting": "[2]; 2.0% CO2 in air", "value": 11.9, "unit": "%"}, {"measurement": "% Difference (root weight vs Air)", "setting": "[2]; 2.0% CO2 in air", "value": "+11.1%"}, {"measurement": "Dry Root Weight", "setting": "[2]; 2.0% CO2 in air", "value": 51.1, "unit": "g"}, {"measurement": "Rough Rice Yield Weight", "setting": "[2]; 2.0% CO2 in air", "value": 99.5, "unit": "g"}, {"measurement": "% Difference (rough rice yield vs Air)", "setting": "[2]; 5.0% CO2 in air", "value": "−3.0", "unit": "%"}, {"measurement": "% Difference (root weight vs Air)", "setting": "[2]; 5.0% CO2 in air", "value": "+20.7%"}, {"measurement": "Dry Root Weight", "setting": "[2]; 5.0% CO2 in air", "value": 55.5, "unit": "g"}, {"measurement": "Rough Rice Yield Weight", "setting": "[2]; 5.0% CO2 in air", "value": 86.2, "unit": "g"}, {"measurement": "average root weights at harvest compared with plants receiving just air", "setting": "[2]; all containers receiving elevated carbon dioxide at roots, in words", "value": "higher"}, {"measurement": "grain yields compared with plants receiving just air", "setting": "[2]; elevated carbon dioxide, with the exception of 5.0% carbon dioxide mixed with air, in words", "value": "higher"}]}]}
